Test results taken from patent US7659078B1, “Method and kit for determination of prostacyclin in plasma” (University of Kentucky Research Foundation, priority 2002, dated 2010).

B1: 1:500 conjugate: NHS ester of 6-keto-PGF1α conjugated to cysteine-free mutant aequorin at 1:500 mole ratio aequorin:6-keto-PGF1α (conjugate)
chain: VKLTPDFDNPKWIGRHKHMFNFLDVNHNGRISLDEMVYKASDIVINNLGATPEQAKRHKDAVEAFFGGAGMKYGVETEWPEYIEGWKRLASEELKRYSKNQITLIRLWGDALFDIIDKDQNGAISLDEWKAYTKSDGIIQSSEDSEETFRVSDIDESGQLDVDEMTRQHLGFWYTMDPASEKLYGGAVP

test system: not listed separately; assay: 6-keto-PGF1α in plasma of PPH patients on intravenous prostacyclin, measured directly without extraction; assay type: in vivo, human; details: PPH patient plasma samples
Protocol: The analysis of 6-keto-PGF1α directly in plasma without extraction was performed by diluting the samples 1:200 times and using 50 μL in the dose-response curve along with 100 μL 6-keto-PGF1α of antibody and 50 μL of 6-keto-PGF1α-aequorin conjugate. The analysis was performed in the same manner as the dose-response curve described before. The amount of 6-keto-PGF1α in the samples was calculated from the standard dose response curve generated in plasma. The appropriate dilution factor was taken into consideration when calculating the amount of 6-keto-PGF1α present in each sample.
For in vivo analysis plasma samples were obtained from five patients with severe pulmonary arterial hypertension and 7 normal controls. […] All patient samples were analyzed in the same manner as the dose response curve in plasma. […] The amount of 6-keto-PGF1α in the samples was calculated as described before for sample analysis without extraction. […]
In order to obtain recovery data further analysis of the samples was performed. Two of the normal plasma samples and two patient plasma samples were first analyzed using the assay without extraction. […] The amount of 6-keto-PGF1α in the samples was calculated as described before for sample analysis without extraction. The samples were analyzed in triplicates. […]

| Molecule | levels of 6-keto-PGF1α in plasma versus prostacyclin dose |
| --- | --- |
| CCCCC[C@H](O)/C=C/[C@@H]1[C@H]2C/C(=C/CCCC(=O)O)O[C@H]2C[C@H]1O [Prostacyclin] | increased with increase in the prostacyclin dose |

test system: anti-6-keto-PGF1α antibody; assay: Binder dilution study of 6-keto-PGF1α-aequorin conjugates; assay type: binding, sheep; details: 1×10^−10 M conjugate, 2 h room temperature, secondary antibody-coated plate; compared with 1:50 and 1:200 conjugates
Protocol: For the binder dilution studies aliquots of 100 μL of different concentrations of serially diluted anti-6-keto-PGF1α antibody, produced in sheep and 50 μL of 1×10^−10 M 6-keto-PGF1α-aequorin conjugate were placed simultaneously in microtiter plates pre-coated with a secondary antibody, donkey anti-sheep IgG. All dilutions were done in the assay buffer. The plates were incubated in dark at room temperature for 2 h with shaking at 300 rpm. Then the plates were washed with wash buffer (30 mM Tris-HCL buffer, pH 7.0, containing 2 mM EDTA, 0.15 M NaCl, and 0.1% Tween 20) three times to remove any unbound primary antibody or any unbound conjugate. Finally, the light intensity was measured as described earlier for the calibration plot.
The next step was to study the interaction between the anti-6-keto-PGF1α antibody and the conjugates. […] After washing the plate to remove any unbound antibody or conjugate the luminescence was measured. […] The effect of increased or decreased amounts of 6-keto-PGF1α antibody and/or conjugate on the dose-response curve was also evaluated. […] The dose-response curve obtained for 6-keto-PGF1α as depicted in FIG. 3, is sigmoidal in shape, with the luminescence intensity being lower at high concentrations of 6-keto-PGF1α and increasing as the concentration of 6-keto-PGF1α decreases. […]

| Molecule | binding to 6-keto-PGF1α antibody (binder-dilution curves) |
| --- | --- |
| B1 | maximum binding |

test system: anti-6-keto-PGF1α antibody; assay: Cross-reactivity of related prostaglandins in the 6-keto-PGF1α aequorin bioluminescent immunoassay; assay type: binding, sheep; details: calculated at 50% B/B0; cross reactant used in the dose response curve instead of 6-keto-PGF1α; assay buffer
Protocol: Dose-Response Curve: A dose-response curve was generated for 6-keto-PGF1α by simultaneously incubating 100 μL of 6-keto-PGF1α antibody (1:10,000 dilution), 50 μL of different concentrations of the serially diluted analyte, 6-keto-PGF1α, and 50 μL of 1×10^−10 M coelenterazine bound 6-keto-PGF1α-aequorin conjugate (1:500) on microtiter plates coated with the secondary antibody. The plate was incubated in dark at room temperature for two hours with shaking at 300 rpm. The plate was washed three times with the wash buffer to remove any unbound components. The light intensity was measured as described before.
Presence of various prostaglandins other than 6-keto-PGF1α in the blood can cause non-specific binding with the 6-keto-PGF1α antibody and interfere with the detection of 6-keto-PGF1α, giving extremely high values of 6-keto-PGF1α. Therefore, it becomes important to confirm that the amount of 6-keto-PGF1α obtained from our assay is only due to 6-keto-PGF1α and no other prostaglandin. The cross-reactivities of other prostaglandins similar in structure to 6-keto-PGF1α were determined by preparing standard solutions of the compounds in the assay buffer ranging from 100,000 to 100 pg/mL and using them in this assay for 6-keto-PGF1α. The measured 6-keto-PGF1α concentration at 50% B/B0 was then calculated. The percent cross-reactivities were calculated by comparison of measured cross-reactant concentration and the actual concentration (known amount) of the cross-reactant in the sample (Table 1). It must be noted that the prostaglandins occur at different times in the arachidonic acid pathway and in different concentrations. […] The assay can, therefore, be used to measure 6-keto-PGF1α directly from plasma.
Cross-reactivities of related prostaglandins were measured by using varying concentrations of 50 μL of the cross reactant in the dose response curve instead of 6-keto-PGF1α. The percent cross-reactivities were calculated at 50% B/B0.

| Molecule | Percent cross-reactivity |
| --- | --- |
| CCCCC[C@H](O)/C=C/[C@@H]1[C@@H](CC(=O)CCC(=O)O)[C@@H](O)C[C@H]1O [2,3-dinor-6-keto-Prostaglandin F1, 2,3-dinor-6-keto-Prostaglandin F1α] | 10.1% |
| CCCCCC(=O)CCC1C(O)CC(O)C1CC(=O)CCCCC(=O)O (stereo not shown) [6,15-diketo-13,14-dihydro-Prostaglandin F1] | 1.83% |
| CCCCC[C@H](O)/C=C/[C@@H]1[C@@H](CC(=O)CCCCC(=O)O)[C@@H](O)C[C@H]1O [6-keto-Prostaglandin F1, 6-keto-Prostaglandin F1α] | 100% |
| CCCCCC(=O)CCC1C(O)CC(O)C1CCCCCCC(=O)O (stereo not shown) [13,14-dihydroxy-15-keto-Prostaglandin F1] | 0.45% |
| CCCCC[C@H](O)/C=C/[C@H]1C(=O)C[C@H](O)[C@@H]1C/C=C\CCCC(=O)O [Prostaglandin D2] | 7.75% |
| CCCCC[C@H](O)/C=C/[C@H]1[C@H](O)CC(=O)[C@@H]1CCCCCCC(=O)O [Prostaglandin E1] | 6.75% |
| CCCCC[C@H](O)/C=C/[C@@H]1[C@@H](CCCCCCC(=O)O)[C@@H](O)C[C@H]1O [Prostaglandin F1] | 5.4% |
| CCCCC[C@H](O)/C=C/[C@@H]1[C@@H](C/C=C\CCCC(=O)O)[C@@H](O)C[C@H]1O [Prostaglandin F2] | 3.41% |
